In article PMC7033309, “π-Helix controls activity of oxygen-sensing diguanylate cyclases” (Bioscience Reports, 2020):

Biological target: T1, PccGCS (Pectobacterium carotovorum, UniProt C6D9C2, H237A/K238A)
T1 construct: gene PC1_2619; full-length PccGCS H237A/K238A (His-tagged)
T1 sequence (C6D9C2 1-471 H237A/K238A): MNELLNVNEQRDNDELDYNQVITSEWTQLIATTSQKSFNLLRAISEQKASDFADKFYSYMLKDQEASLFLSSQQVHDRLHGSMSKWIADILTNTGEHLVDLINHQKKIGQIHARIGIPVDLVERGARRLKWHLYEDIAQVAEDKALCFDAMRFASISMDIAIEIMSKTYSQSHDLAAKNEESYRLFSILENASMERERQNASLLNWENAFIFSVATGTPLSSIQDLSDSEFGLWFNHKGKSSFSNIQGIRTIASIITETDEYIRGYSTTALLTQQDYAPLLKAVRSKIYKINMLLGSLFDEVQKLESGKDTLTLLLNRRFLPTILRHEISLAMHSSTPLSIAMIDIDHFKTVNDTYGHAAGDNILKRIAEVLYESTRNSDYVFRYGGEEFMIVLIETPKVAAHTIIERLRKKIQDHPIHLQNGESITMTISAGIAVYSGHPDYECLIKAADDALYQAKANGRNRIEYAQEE
Assay: isothermal titration calorimetry, […]°C
Assay type: binding

`Nc1nc2c(ncn2[C@@H]2O[C@H](COP(=O)(O)CP(=O)(O)OP(=O)(O)O)[C@@H](O)[C@H]2O)c(=O)[nH]1` [GpCpp, guanosine-5′-[(α,β)-methyleno]triphosphate] was tested. Which Kd did it give?
The Kd was 9.7 ± 3.9 µM.
